# Assay results as given in paper PMC8274846, “Biogenic nanoporous silicon carrier improves the efficacy of buparvaquone against resistant visceral leishmaniasis” (PLoS Neglected Tropical Diseases, 2021).
# Where two headings read alike, the source gives them in different places.
# How the values were obtained:
# [1] = tested on: intracellular L.donovani amastigotes, wild-type AG83, in macrophages; experiment: Antileishmanial activity against intracellular amastigotes, wild-type AG83; format: cell-based; settings: for IC50: Leishmania donovani, Macrophage
# Procedure: The intracellular antileishmanial activity was evaluated based on the reduction in the amastigote numbers in the infected macrophages after the treatment. The method was adapted from our previous work. Briefly, 4x10^6 amastigotes in 500 μL of RPMI-1640 suspension were added to each well containing macrophages with the macrophage: parasite ratio of 1:10. The plates were incubated for 4 h at 37°C in 5% CO2. After the parasite internalization period, cells were washed at least twice with fresh media to remove non-phagocytosed parasites. Then, the drug specimen suspended in 1 mL RPMI-1640 was added, and the samples were incubated for 72 h at 37°C in 5% CO2. The medium was aspirated, the coverslips were removed, and then fixed with methanol and air-dried. After staining with Giemsa, 100 cells on the glass discs were counted. Three independent experiments in quadruplicate for each concentration were performed.
# Microscopic examinations were performed in duplicates with various concentrations of pure drugs or buparvaquone-loaded nanoparticles and also for control wells. The amastigotes cells were counted for all cases using a hemocytometer. The mean of the control wells was considered as 100% survival. The counts in the treated wells at various concentrations were converted into percentages. Giemsa-stained slides of the macrophages infected with amastigotes were observed under a light microscope. Then the numbers of amastigotes and infected macrophages per 100 cells were counted for each slide. The percentage (%) of inhibition was calculated by using the equation %ofinhibition=C−T/C×100, (2) where C is the number of amastigotes/infected macrophages per 100 cells in the control well and T is the number of amastigotes/infected macrophages per 100 cells in the drug-treated well.
# Origin version 6.1 software was used to calculate IC50 and CC50 values by plotting a graph of the percentage of inhibition at various concentrations of all the observations.
# [2] = set-up: method as in PMID 1289357, PMID 14695832; settings: cited from earlier work
# [3] = Cytotoxicity studies (CC50) on peritoneal macrophages; format: cell-based, BALB/c mice; settings: BALB/c, mouse, resident peritoneal macrophages, 48 h exposure, mean ± σ, n = 3
# Procedure: (§1) Resident peritoneal macrophages were isolated from BALB/c mice. For the isolation, 1.5 mL of sterile thioglycolate medium was injected into the peritoneal cavity to induce non-infectious inflammation. Animals were sacrificed after 5 days, and peritoneal exudates were harvested by intraperitoneal lavage. Cold RPMI (6 mL) was injected into the peritoneal cavity. After 10 min, the injected fluid was withdrawn by the same syringe. From each animal, approximately 3-4 mL of medium was recovered. After centrifugation at 200 g for 15 min, macrophages were collected. […] The cytotoxicity of the drug specimen was evaluated by the CC50 value, which is the concentration required to kill 50% of the host cell population. Macrophages were first isolated from peritoneal lavage as described above. The cells were seeded into 96-well plates at 1x10^6 cells/mL in 200 μL of RPMI-1640 supplemented with 10% FCS, 20 mM L-glutamine, 16 mM NaHCO3, penicillin (50 U/mL) and streptomycin (50 μg/ mL) at 37°C in 5% CO2 for 4 h for adherence. To remove the non-adherent cells, each plate was washed two times with phosphate buffer saline (pH 7.2). […] Microscopic examinations were performed in duplicates with various concentrations of pure drugs or buparvaquone-loaded nanoparticles and also for control wells. The amastigotes cells were counted for all cases using a hemocytometer. The mean of the control wells was considered as 100% survival. The counts in the treated wells at various concentrations were converted into percentages. Giemsa-stained slides of the macrophages infected with amastigotes were observed under a light microscope. Then the numbers of amastigotes and infected macrophages per 100 cells were counted for each slide. The percentage (%) of inhibition was calculated by using the equation %[…]×100, (2) where C is the number of amastigotes/infected macrophages per 100 cells in the control well and T is the number of amastigotes/infected macrophages per 100 cells in the drug-treated well.
# [4] = tested on: resident peritoneal macrophages; experiment: as above; format: cell-based, BALB/c mice; settings: 48 h exposure, mean ± σ, n = 3, read-out: CC50
# Procedure: as §1
compound,measurement,setting,value
"CC(C)(C)[C@H]1CC[C@H](CC2=C(O)C(=O)c3ccccc3C2=O)CC1 [BPQ, Buparvaquone]",Fold larger cellular IC50 of pure BPQ than BPQ+NP,[1]; AG83,3 fold
same,"Selectivity index (SI), AG83","[1]; CC50/IC50, intracellular",120 ± 10
same,IC50,"[1]; cellular model, range over all four L. donovani strains (Table 3), read-out: Cellular IC50, range over the strains",2 to 5 µM
same,IC50,"[1]; intracellular amastigotes, 72 h, mean ± σ, n = 4, read-out: Cellular IC50, Wild-type AG83",2.9 ± 0.3 µM
same,Aqueous solubility,[2],< 0.03 µg/mL
same,CC50 at 48 h,[3],> 300 µM
same,CC50,[4],330 ± 30 µM
